Columns and labels:
[1] = system: pilocarpine induced status epilepticus (SE); assay: Pilocarpine-induced status epilepticus in rats, cortical EEG power; format: in vivo, Male Sprague-Dawley rats; set-up: key to Treatment effect on EEG power vs vehicle, significance: * P < 0.05; ** P < 0.01; *** P < 0.001; **** P < 0.0001; ns = not significant; settings: 15 mg/kg IV
Description: This study was designed to determine the ability of a CAPTISOL-ganaxolone (GNX) formulation administered intravenously (IV) at 12 and 15 mg/kg to inhibit pilocarpine induced status epilepticus (SE). Allopregnanolone (Allo) (15 mg/kg; IV) was also evaluated for comparison. In this study, test drugs were administered either 15 or 60 minutes after onset of SE and compared to vehicle (30% Captisol).
Cortical EEG activity was recorded in rats before and after administration of pilocarpine to induce SE. Animals were pre-treated with LiCl to enhance and improve reliability of seizure induction and scopolamine to reduce peripheral cholinergic side effects of pilocarpine. EEG activity was recorded for 5 h after SE onset, and anticonvulsant activity was assessed by determining changes in EEG power over frequency ranges from 0.3 to 96 Hz.
Male Sprague-Dawley rats were used for the studies. Rats were surgically implanted with EEG electrodes and jugular vein catheters. The mean weight at the time of recording was 321+3 g (269-351 g).
EEG electrodes were surgically implanted in anesthetized rats. Animals were also treated with an anti-inflammatory anaelgesic (RIMADYL, (carprofen)) prior to surgery and a subcutaneous local anesthetic. Stainless steel screw electrodes chronically were implanted in the skull (0-80×¼″, Plastics-One, Roanoke, VA) such that the ends of the screws were flush with the inner skull surface. One electrode was located 3.0 mm anterior to bregma and 2 mm to the left of midline, and the second 4.0 mm posterior to bregma and 2.5 mm to the right of midline. The skull surface around the electrodes was sealed with super glue and dental acrylic, and the EEG electrode lead wires were inserted into a plastic pedestal mounted on the skull using dental acrylic. Wound edges were treated with triple antibiotic cream (bacitracin zinc, neomycin sulfate, polymyxin B sulfate; Walgreens). Following surgery, animals were administered antibiotic (ampicillin, 50 mg/kg IP at 0.4 mL/kg) and also received a chewable dose (˜10 mg) of Rimadyl following surgery. The animals were allowed to recover from EEG surgery for 1 week.
Rats were implanted with jugular-vein catheters (JVC) one week following EEG surgery. Rats were administered an anti-inflammatory/analgesic and then anesthetized and placed in a supine position. An incision was made in the skin on the right ventrolateral aspect of the neck to expose the external jugular vein which was then dissected free of surrounding fascia. A ligature was tied around the vein anteriorly to occlude blood flow returning to the heart. A second ligature was loosely tied around the vein posteriorly to create tension on the vessel during venotomy and catheter insertion. After incising the vein, a PE catheter (3Fr) was inserted into the vein and advanced approximately 30 mm towards the heart, positioning the tip at the junction of the precava and right atrium. After confirming patency of the catheter by blood withdrawal, the posterior ligature was tied off, and the catheter flushed with a “heparin-lock” solution (5 units heparin/ml saline) and plugged with a sterilized stainless steel pin. The catheter was then exteriorized by tunneling through the subcutaneous tissue to exit posterior to the head between the shoulder blades. Lastly, after suturing the catheter to the skin, all wounds were closed using sutures or wound clips. Immediately following surgery, the animals were awakened to assess catheter patency. Animals also received a chewable dose (˜10 mg) of Rimadyl following surgery to minimize pain and inflammation.
Animals were allowed a 1-week recovery time following JVC surgery. Jugular vein catheters were flushed daily with a 0.1 mL of heparin solution (5 units/mL) to maintain patency. On the day of surgery, the flushing solution contained ampicillin sulbactam (50 mg/kg). […]

[2] = in vivo; cited from earlier work

SMILES: CC(=O)[C@H]1CC[C@H]2[C@@H]3CC[C@H]4C[C@H](O)CC[C@]4(C)[C@H]3CC[C@]12C [Allopregnanolone]
- reduction in SE ([1]; 60′ dosing delay, 0-5 and 5-10 Hz): strong reduction in SE in the first 15′ after dosing
- Treatment effect on EEG power vs vehicle, significance ([1]; 15 min post SE onset, 0-5 Hz, 0-15 min. post drug): **** (**** P < 0.0001)
- Treatment effect on EEG power vs vehicle, significance ([1]; 15 min post SE onset, 0-5 Hz, 1-2 hrs post drug): *** (*** P < 0.001)
- Treatment effect on EEG power vs vehicle, significance ([1]; 15 min post SE onset, 0-5 Hz, 2-3 hrs post drug): * (* P < 0.05)
- Treatment effect on EEG power vs vehicle, significance ([1]; 15 min post SE onset, 0-5 Hz, 3-5 hrs post drug): ns
- Treatment effect on EEG power vs vehicle, significance ([1]; 15 min post SE onset, 0-5 Hz, 15-30 min post drug): **** (**** P < 0.0001)
- Treatment effect on EEG power vs vehicle, significance ([1]; 15 min post SE onset, 0-5 Hz, 30-60 min post drug): **** (**** P < 0.0001)
- Treatment effect on EEG power vs vehicle, significance ([1]; 15 min post SE onset, 5-10 Hz, 0-15 min. post drug): **** (**** P < 0.0001)
- Treatment effect on EEG power vs vehicle, significance ([1]; 15 min post SE onset, 5-10 Hz, 1-2 hrs post drug): *** (*** P < 0.001)
- Treatment effect on EEG power vs vehicle, significance ([1]; 15 min post SE onset, 5-10 Hz, 2-3 hrs post drug): ns
- Treatment effect on EEG power vs vehicle, significance ([1]; 15 min post SE onset, 5-10 Hz, 3-5 hrs post drug): ns
- Treatment effect on EEG power vs vehicle, significance ([1]; 15 min post SE onset, 5-10 Hz, 15-30 min post drug): **** (**** P < 0.0001)
- Treatment effect on EEG power vs vehicle, significance ([1]; 15 min post SE onset, 5-10 Hz, 30-60 min post drug): **** (**** P < 0.0001)
- Treatment effect on EEG power vs vehicle, significance ([1]; 15 min post SE onset, 10-30 Hz, 0-15 min. post drug): **** (**** P < 0.0001)
- Treatment effect on EEG power vs vehicle, significance ([1]; 15 min post SE onset, 10-30 Hz, 1-2 hrs post drug): ** (** P < 0.01)
- Treatment effect on EEG power vs vehicle, significance ([1]; 15 min post SE onset, 10-30 Hz, 2-3 hrs post drug): ns
- Treatment effect on EEG power vs vehicle, significance ([1]; 15 min post SE onset, 10-30 Hz, 3-5 hrs post drug): ns
- Treatment effect on EEG power vs vehicle, significance ([1]; 15 min post SE onset, 10-30 Hz, 15-30 min post drug): **** (**** P < 0.0001)
- Treatment effect on EEG power vs vehicle, significance ([1]; 15 min post SE onset, 10-30 Hz, 30-60 min post drug): *** (*** P < 0.001)
- Treatment effect on EEG power vs vehicle, significance ([1]; 15 min post SE onset, 30-50 Hz, 0-15 min. post drug): **** (**** P < 0.0001)
- Treatment effect on EEG power vs vehicle, significance ([1]; 15 min post SE onset, 30-50 Hz, 1-2 hrs post drug): ns
- Treatment effect on EEG power vs vehicle, significance ([1]; 15 min post SE onset, 30-50 Hz, 2-3 hrs post drug): ns
- Treatment effect on EEG power vs vehicle, significance ([1]; 15 min post SE onset, 30-50 Hz, 3-5 hrs post drug): ns
- Treatment effect on EEG power vs vehicle, significance ([1]; 15 min post SE onset, 30-50 Hz, 15-30 min post drug): **** (**** P < 0.0001)
- Treatment effect on EEG power vs vehicle, significance ([1]; 15 min post SE onset, 30-50 Hz, 30-60 min post drug): *** (*** P < 0.001)
- Treatment effect on EEG power vs vehicle, significance ([1]; 15 min post SE onset, 50-70 Hz, 0-15 min. post drug): *** (*** P < 0.001)
- Treatment effect on EEG power vs vehicle, significance ([1]; 15 min post SE onset, 50-70 Hz, 1-2 hrs post drug): ns
- Treatment effect on EEG power vs vehicle, significance ([1]; 15 min post SE onset, 50-70 Hz, 2-3 hrs post drug): ns
- Treatment effect on EEG power vs vehicle, significance ([1]; 15 min post SE onset, 50-70 Hz, 3-5 hrs post drug): ns
- Treatment effect on EEG power vs vehicle, significance ([1]; 15 min post SE onset, 50-70 Hz, 15-30 min post drug): *** (*** P < 0.001)
- Treatment effect on EEG power vs vehicle, significance ([1]; 15 min post SE onset, 50-70 Hz, 30-60 min post drug): ** (** P < 0.01)
- Treatment effect on EEG power vs vehicle, significance ([1]; 15 min post SE onset, 70-96 Hz, 0-15 min. post drug): *** (*** P < 0.001)
- Treatment effect on EEG power vs vehicle, significance ([1]; 15 min post SE onset, 70-96 Hz, 1-2 hrs post drug): ns
- Treatment effect on EEG power vs vehicle, significance ([1]; 15 min post SE onset, 70-96 Hz, 2-3 hrs post drug): ns
- Treatment effect on EEG power vs vehicle, significance ([1]; 15 min post SE onset, 70-96 Hz, 3-5 hrs post drug): ns
- Treatment effect on EEG power vs vehicle, significance ([1]; 15 min post SE onset, 70-96 Hz, 15-30 min post drug): *** (*** P < 0.001)
- Treatment effect on EEG power vs vehicle, significance ([1]; 15 min post SE onset, 70-96 Hz, 30-60 min post drug): ** (** P < 0.01)
- reduction in SE ([1]; 15 minutes post-seizure onset): strong reduction in SE up to 1 h post dosing
- Treatment effect on EEG power vs vehicle, significance ([1]; 60 min post SE onset, 0-5 Hz, 0-15 min. post drug): ** (** P < 0.01)
- Treatment effect on EEG power vs vehicle, significance ([1]; 60 min post SE onset, 0-5 Hz, 1-2 hrs post drug): ns
- Treatment effect on EEG power vs vehicle, significance ([1]; 60 min post SE onset, 0-5 Hz, 2-3 hrs post drug): ns
- Treatment effect on EEG power vs vehicle, significance ([1]; 60 min post SE onset, 0-5 Hz, 3-5 hrs post drug): ns
- Treatment effect on EEG power vs vehicle, significance ([1]; 60 min post SE onset, 0-5 Hz, 15-30 min post drug): ns
- Treatment effect on EEG power vs vehicle, significance ([1]; 60 min post SE onset, 0-5 Hz, 30-60 min post drug): Ns
- Treatment effect on EEG power vs vehicle, significance ([1]; 60 min post SE onset, 5-10 Hz, 0-15 min. post drug): ** (** P < 0.01)
- Treatment effect on EEG power vs vehicle, significance ([1]; 60 min post SE onset, 5-10 Hz, 1-2 hrs post drug): ns
- Treatment effect on EEG power vs vehicle, significance ([1]; 60 min post SE onset, 5-10 Hz, 2-3 hrs post drug): ns
- Treatment effect on EEG power vs vehicle, significance ([1]; 60 min post SE onset, 5-10 Hz, 3-5 hrs post drug): ns
- Treatment effect on EEG power vs vehicle, significance ([1]; 60 min post SE onset, 5-10 Hz, 15-30 min post drug): ns
- Treatment effect on EEG power vs vehicle, significance ([1]; 60 min post SE onset, 5-10 Hz, 30-60 min post drug): Ns
- Treatment effect on EEG power vs vehicle, significance ([1]; 60 min post SE onset, 10-30 Hz, 0-15 min. post drug): ns
- Treatment effect on EEG power vs vehicle, significance ([1]; 60 min post SE onset, 10-30 Hz, 1-2 hrs post drug): ns
- Treatment effect on EEG power vs vehicle, significance ([1]; 60 min post SE onset, 10-30 Hz, 2-3 hrs post drug): ns
- Treatment effect on EEG power vs vehicle, significance ([1]; 60 min post SE onset, 10-30 Hz, 3-5 hrs post drug): ns
- Treatment effect on EEG power vs vehicle, significance ([1]; 60 min post SE onset, 10-30 Hz, 15-30 min post drug): ns
- Treatment effect on EEG power vs vehicle, significance ([1]; 60 min post SE onset, 10-30 Hz, 30-60 min post drug): Ns
- Treatment effect on EEG power vs vehicle, significance ([1]; 60 min post SE onset, 30-50 Hz, 0-15 min. post drug): ns
- Treatment effect on EEG power vs vehicle, significance ([1]; 60 min post SE onset, 30-50 Hz, 1-2 hrs post drug): ns
- Treatment effect on EEG power vs vehicle, significance ([1]; 60 min post SE onset, 30-50 Hz, 2-3 hrs post drug): ns
- Treatment effect on EEG power vs vehicle, significance ([1]; 60 min post SE onset, 30-50 Hz, 3-5 hrs post drug): ns
- Treatment effect on EEG power vs vehicle, significance ([1]; 60 min post SE onset, 30-50 Hz, 15-30 min post drug): ns
- Treatment effect on EEG power vs vehicle, significance ([1]; 60 min post SE onset, 30-50 Hz, 30-60 min post drug): Ns
- Treatment effect on EEG power vs vehicle, significance ([1]; 60 min post SE onset, 50-70 Hz, 0-15 min. post drug): ns
- Treatment effect on EEG power vs vehicle, significance ([1]; 60 min post SE onset, 50-70 Hz, 1-2 hrs post drug): ns
- Treatment effect on EEG power vs vehicle, significance ([1]; 60 min post SE onset, 50-70 Hz, 2-3 hrs post drug): ns
- Treatment effect on EEG power vs vehicle, significance ([1]; 60 min post SE onset, 50-70 Hz, 3-5 hrs post drug): ns
- Treatment effect on EEG power vs vehicle, significance ([1]; 60 min post SE onset, 50-70 Hz, 15-30 min post drug): ns
- Treatment effect on EEG power vs vehicle, significance ([1]; 60 min post SE onset, 50-70 Hz, 30-60 min post drug): Ns
- Treatment effect on EEG power vs vehicle, significance ([1]; 60 min post SE onset, 70-96 Hz, 0-15 min. post drug): ns
- Treatment effect on EEG power vs vehicle, significance ([1]; 60 min post SE onset, 70-96 Hz, 1-2 hrs post drug): ns
- Treatment effect on EEG power vs vehicle, significance ([1]; 60 min post SE onset, 70-96 Hz, 2-3 hrs post drug): ns
- Treatment effect on EEG power vs vehicle, significance ([1]; 60 min post SE onset, 70-96 Hz, 3-5 hrs post drug): ns
- Treatment effect on EEG power vs vehicle, significance ([1]; 60 min post SE onset, 70-96 Hz, 15-30 min post drug): ns
- Treatment effect on EEG power vs vehicle, significance ([1]; 60 min post SE onset, 70-96 Hz, 30-60 min post drug): Ns
- half-life [2]: very short

From patent publication US20250325562A1, “Intravenous Ganaxolone Formulations and Methods of Use in Treating Status Epilepticus and Other Seizure Disorders” (MARINUS PHARMACEUTICALS, INC., priority 2015, published 2025)
